Assay results from PMC12377202, “Design, synthesis, and cytotoxic evaluation of quinazoline-based derivatives as VEGER-2 inhibitors: comparative study against EGFR kinase activity, induction of apoptosis, and molecular docking study” (RSC Advances, 2025).

Experiments:
MCF-7 = experiment: MTT anti-proliferative assay, MCF-7; assay type: cell-based, human; details: Homo sapiens, MCF7
HepG-2 = experiment: MTT anti-proliferative assay, HepG-2; assay type: cell-based, human; details: Homo sapiens, HepG2
TNF-alpha = TNF-alpha level in HepG-2 cells; assay type: cell-based, human; details: control 43.48
Experimental: (§1) All synthesized compounds were tested at their cytotoxic concentrations in HepG-2 cells for analysis of gene expression levels of apoptotic markers caspase-3, caspase-9, TNF-α, and IL-6 proteins, and only two active compounds were tested for BAX and Bcl-2 proteins.
(§2) through Flow cytometric analysis.
(§3) Pellets were collected again and incubated with
(§4) Total RNA from vehicle-treated
(§5) (Thermo Scientific, USA).
(§6) All experiments were performed in […]

IL-6R = IL-6R level in HepG-2 cells; assay type: cell-based, human
Experimental: as §1, §2, §3, §4, §5, §6

VEGFR-2 = VEGFR-2 (Homo sapiens, UniProt P35968); experiment: In vitro VEGFR-2 inhibitory assay (ELISA kit); details: VEGFR-2 kinase
caspase-3 = experiment: Caspase-3 expression level in HepG-2 cells; assay type: cell-based, human; details: for Caspase-3 ± SE: HepG-2, at IC50 concentrations, control 0.460
Experimental: as §1, §2, §3, §4, §5, §6

caspase-9 = experiment: Caspase-9 expression level in HepG-2 cells; assay type: cell-based, human; details: for Caspase-9 ± SE: HepG-2, at IC50 concentrations, control 11.01
Experimental: as §1, §2, §3, §4, §5, §6

K-562 = experiment: MTT anti-proliferative assay, K-562; assay type: cell-based, human; details: Homo sapiens, K562
EGFR = EGFR (Homo sapiens, UniProt P00533); experiment: EGFR kinase inhibition assay (ELISA kit)
Chain of EGFR (P00533 25-1210): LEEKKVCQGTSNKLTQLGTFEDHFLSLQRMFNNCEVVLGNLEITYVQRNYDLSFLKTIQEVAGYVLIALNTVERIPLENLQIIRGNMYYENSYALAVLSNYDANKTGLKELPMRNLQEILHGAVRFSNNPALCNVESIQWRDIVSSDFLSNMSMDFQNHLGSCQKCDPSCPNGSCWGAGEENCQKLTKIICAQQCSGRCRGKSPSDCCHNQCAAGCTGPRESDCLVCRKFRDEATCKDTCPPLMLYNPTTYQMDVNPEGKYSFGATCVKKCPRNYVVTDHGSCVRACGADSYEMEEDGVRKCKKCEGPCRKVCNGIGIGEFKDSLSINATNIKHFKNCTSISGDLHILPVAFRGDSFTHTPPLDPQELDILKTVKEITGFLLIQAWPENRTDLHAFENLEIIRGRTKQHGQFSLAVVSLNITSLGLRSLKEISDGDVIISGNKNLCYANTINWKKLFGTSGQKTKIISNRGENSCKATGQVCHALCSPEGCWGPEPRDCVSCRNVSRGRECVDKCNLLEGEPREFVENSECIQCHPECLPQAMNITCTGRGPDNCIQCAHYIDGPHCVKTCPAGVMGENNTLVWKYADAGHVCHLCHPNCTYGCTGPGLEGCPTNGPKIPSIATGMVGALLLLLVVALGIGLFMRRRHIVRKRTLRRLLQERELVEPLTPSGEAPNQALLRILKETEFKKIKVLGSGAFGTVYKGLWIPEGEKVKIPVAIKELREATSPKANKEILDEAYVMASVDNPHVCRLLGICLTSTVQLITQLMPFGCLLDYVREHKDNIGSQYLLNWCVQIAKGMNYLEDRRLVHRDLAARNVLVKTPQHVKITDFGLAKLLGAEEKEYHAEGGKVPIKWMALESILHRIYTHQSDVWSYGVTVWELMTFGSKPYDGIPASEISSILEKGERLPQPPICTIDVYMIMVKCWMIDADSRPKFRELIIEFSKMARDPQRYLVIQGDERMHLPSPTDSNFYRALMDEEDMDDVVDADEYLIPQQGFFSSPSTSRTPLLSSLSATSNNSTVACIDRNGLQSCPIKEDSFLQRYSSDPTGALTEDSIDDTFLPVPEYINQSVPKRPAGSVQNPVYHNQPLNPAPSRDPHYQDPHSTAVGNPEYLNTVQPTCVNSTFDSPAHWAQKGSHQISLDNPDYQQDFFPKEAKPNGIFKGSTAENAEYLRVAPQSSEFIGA

Chain of VEGFR-2 (P35968 20-1356): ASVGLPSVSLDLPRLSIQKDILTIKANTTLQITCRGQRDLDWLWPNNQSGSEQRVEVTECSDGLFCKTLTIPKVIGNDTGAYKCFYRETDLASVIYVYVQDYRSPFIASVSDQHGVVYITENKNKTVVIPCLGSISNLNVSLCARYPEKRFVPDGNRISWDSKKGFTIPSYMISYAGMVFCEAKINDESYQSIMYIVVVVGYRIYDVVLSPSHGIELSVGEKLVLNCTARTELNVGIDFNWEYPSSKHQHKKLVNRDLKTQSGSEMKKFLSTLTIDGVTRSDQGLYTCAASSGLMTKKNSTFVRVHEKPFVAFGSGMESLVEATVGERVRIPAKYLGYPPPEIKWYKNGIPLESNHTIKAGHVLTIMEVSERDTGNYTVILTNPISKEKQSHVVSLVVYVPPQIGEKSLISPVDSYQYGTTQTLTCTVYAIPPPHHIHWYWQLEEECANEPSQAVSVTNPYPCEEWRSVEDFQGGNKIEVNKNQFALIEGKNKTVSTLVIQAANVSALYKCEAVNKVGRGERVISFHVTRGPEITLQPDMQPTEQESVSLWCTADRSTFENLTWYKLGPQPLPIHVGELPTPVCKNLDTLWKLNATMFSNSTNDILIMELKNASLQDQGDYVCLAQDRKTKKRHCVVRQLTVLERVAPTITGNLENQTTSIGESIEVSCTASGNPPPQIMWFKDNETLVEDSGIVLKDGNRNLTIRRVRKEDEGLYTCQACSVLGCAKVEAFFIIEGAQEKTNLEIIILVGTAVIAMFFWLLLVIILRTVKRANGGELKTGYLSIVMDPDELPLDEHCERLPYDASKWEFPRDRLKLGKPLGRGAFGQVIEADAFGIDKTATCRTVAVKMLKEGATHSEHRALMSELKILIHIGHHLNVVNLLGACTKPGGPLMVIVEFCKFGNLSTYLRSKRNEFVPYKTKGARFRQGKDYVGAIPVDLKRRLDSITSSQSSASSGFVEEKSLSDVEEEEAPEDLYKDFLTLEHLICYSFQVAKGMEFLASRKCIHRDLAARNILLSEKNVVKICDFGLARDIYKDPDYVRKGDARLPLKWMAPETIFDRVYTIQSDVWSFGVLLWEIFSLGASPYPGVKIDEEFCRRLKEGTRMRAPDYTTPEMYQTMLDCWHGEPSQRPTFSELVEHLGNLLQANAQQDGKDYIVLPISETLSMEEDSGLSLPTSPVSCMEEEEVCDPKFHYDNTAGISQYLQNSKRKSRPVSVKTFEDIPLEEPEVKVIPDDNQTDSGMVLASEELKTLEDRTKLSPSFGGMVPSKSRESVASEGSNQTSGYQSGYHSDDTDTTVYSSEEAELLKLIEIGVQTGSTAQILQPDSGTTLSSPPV

O=C(Cn1cnc2cc(Cl)ccc2c1=O)Nc1ccccc1Cl [8b, 2-(7-Chloro-4-oxoquinazolin-3(4H)-yl)-N-(2-chlorophenyl)acetamide]
viability at 0.195 µmol (MCF-7; MCF-7, 0.195 umol): 47.8%
cytotoxicity at 0.195 µmol (MCF-7; MCF-7, 0.195 umol, read-out: Toxicity %): 52.2%
viability at 0.391 µmol (MCF-7; MCF-7, 0.391 umol): 28.6%
cytotoxicity at 0.391 µmol (MCF-7; MCF-7, 0.391 umol, read-out: Toxicity %): 71.4%
viability at 0.781 µmol (MCF-7; MCF-7, 0.781 umol): 14.1%
cytotoxicity at 0.781 µmol (MCF-7; MCF-7, 0.781 umol, read-out: Toxicity %): 85.9%
viability at 1.563 µmol (MCF-7; MCF-7, 1.563 umol): 12%
cytotoxicity at 1.563 µmol (MCF-7; MCF-7, 1.563 umol, read-out: Toxicity %): 88%
viability at 3.125 µmol (MCF-7; MCF-7, 3.125 umol): 9.81%
cytotoxicity at 3.125 µmol (MCF-7; MCF-7, 3.125 umol, read-out: Toxicity %): 90.2%
viability at 6.25 µmol (MCF-7; MCF-7, 6.25 umol): 8.27%
cytotoxicity at 6.25 µmol (MCF-7; MCF-7, 6.25 umol, read-out: Toxicity %): 91.7%
viability at 12.5 µmol (MCF-7; MCF-7, 12.5 umol): 6.86%
cytotoxicity at 12.5 µmol (MCF-7; MCF-7, 12.5 umol, read-out: Toxicity %): 93.1%
viability at 25 µmol (MCF-7; MCF-7, 25 umol): 6.68%
cytotoxicity at 25 µmol (MCF-7; MCF-7, 25 umol, read-out: Toxicity %): 93.3%
IC50 (MCF-7; MTT, MCF-7, read-out: Cytotoxicity against cancer cells IC50 MCF-7): 191 ± 4 nM
viability at 0.195 µg/mL (HepG-2; HepG-2, 0.195 ug/ml): 52.9%
cytotoxicity at 0.195 µg/mL (HepG-2; HepG-2, 0.195 ug/ml, read-out: Toxicity %): 47.1%
viability at 0.391 µg/mL (HepG-2; HepG-2, 0.391 ug/ml): 33.3%
cytotoxicity at 0.391 µg/mL (HepG-2; HepG-2, 0.391 ug/ml, read-out: Toxicity %): 66.7%
viability at 0.781 µg/mL (HepG-2; HepG-2, 0.781 ug/ml): 27.5%
cytotoxicity at 0.781 µg/mL (HepG-2; HepG-2, 0.781 ug/ml, read-out: Toxicity %): 72.5%
viability at 1.563 µg/mL (HepG-2; HepG-2, 1.563 ug/ml): 13.7%
cytotoxicity at 1.563 µg/mL (HepG-2; HepG-2, 1.563 ug/ml, read-out: Toxicity %): 86.3%
viability at 3.125 µg/mL (HepG-2; HepG-2, 3.125 ug/ml): 9.67%
cytotoxicity at 3.125 µg/mL (HepG-2; HepG-2, 3.125 ug/ml, read-out: Toxicity %): 90.3%
viability at 6.25 µg/mL (HepG-2; HepG-2, 6.25 ug/ml): 8.39%
cytotoxicity at 6.25 µg/mL (HepG-2; HepG-2, 6.25 ug/ml, read-out: Toxicity %): 91.6%
viability at 12.5 µg/mL (HepG-2; HepG-2, 12.5 ug/ml): 7.03%
cytotoxicity at 12.5 µg/mL (HepG-2; HepG-2, 12.5 ug/ml, read-out: Toxicity %): 93%
viability at 25 µg/mL (HepG-2; HepG-2, 25 ug/ml): 5.68%
cytotoxicity at 25 µg/mL (HepG-2; HepG-2, 25 ug/ml, read-out: Toxicity %): 94.3%
IC50 (HepG-2; MTT, HepG-2, read-out: Cytotoxicity against cancer cells IC50 HepG-2): 224.2 ± 1.7 nM
TNF-alpha ±SE (TNF-alpha; HepG-2, at IC50 concentrations): 23.47 ± 0.56 ng/L
TNF-alpha ±SE (TNF-alpha; raw data, HepG2): 16.86 ng/L
IL-6R ± SE (IL-6R; HepG-2, at IC50 concentrations, control 44.10): 24.59 ± 0.95 ng/L
IL-6R protein level (IL-6R; HepG-2, control 44.10%): 24.59 ng/L
IL-6 ±SE (IL-6R; raw data, HepG2, control 44.10): 11.87 ng/L
Activity % (VEGFR-2; HepG2): 11.673%
Inhibition % (VEGFR-2; HepG2): 88.327%
Activity % (VEGFR-2; K-562): 21.332%
Inhibition % (VEGFR-2; K-562): 78.668%
Activity % (VEGFR-2; MCF7): 19.260%
Inhibition % (VEGFR-2; MCF7): 80.740%
Caspase-3 ± SE (caspase-3): 1.10 ± 0.046 ng/mL
Caspase-3 ± SE (caspase-3; listed as R3): 1.10 ng/mL
caspase-3 expression level, fold increase (caspase-3; HepG-2, vs control cells): 2.40 fold
Caspase-9 ± SE (caspase-9): 83.31 ± 1.28 ng/L
Caspase-9 ± SE (caspase-9; listed as R3): 83.31 ng/L
caspase-9 expression level, fold increase (caspase-9; HepG-2, vs control cells): 7.5 fold
viability at 0.195 µmol (K-562; K-562, 0.195 umol): 82.7%
cytotoxicity at 0.195 µmol (K-562; K-562, 0.195 umol, read-out: Toxicity %): 17.3%
viability at 0.391 µmol (K-562; K-562, 0.391 umol): 55.2%
cytotoxicity at 0.391 µmol (K-562; K-562, 0.391 umol, read-out: Toxicity %): 44.8%
viability at 0.781 µmol (K-562; K-562, 0.781 umol): 27.4%
cytotoxicity at 0.781 µmol (K-562; K-562, 0.781 umol, read-out: Toxicity %): 72.6%
viability at 1.563 µmol (K-562; K-562, 1.563 umol): 16.4%
cytotoxicity at 1.563 µmol (K-562; K-562, 1.563 umol, read-out: Toxicity %): 83.6%
viability at 3.125 µmol (K-562; K-562, 3.125 umol): 11.1%
cytotoxicity at 3.125 µmol (K-562; K-562, 3.125 umol, read-out: Toxicity %): 88.9%
viability at 6.25 µmol (K-562; K-562, 6.25 umol): 8.54%
cytotoxicity at 6.25 µmol (K-562; K-562, 6.25 umol, read-out: Toxicity %): 91.5%
viability at 12.5 µmol (K-562; K-562, 12.5 umol): 7.8%
cytotoxicity at 12.5 µmol (K-562; K-562, 12.5 umol, read-out: Toxicity %): 92.2%
viability at 25 µmol (K-562; K-562, 25 umol): 6.69%
cytotoxicity at 25 µmol (K-562; K-562, 25 umol, read-out: Toxicity %): 93.3%
IC50 (K-562; MTT, K-562, read-out: Cytotoxicity against cancer cells IC50 K-562): 464.2 ± 3 nM
Activity % (EGFR; HepG2): 16.278%
Inhibition % (EGFR; HepG2): 83.722%
Activity % (EGFR; K-562): 17.305%
Inhibition % (EGFR; K-562): 82.695%
Activity % (EGFR; MCF7): 18.736%
Inhibition % (EGFR; MCF7): 81.264%
